Experimental data: patent publication US6632794B1, “Insulin-like growth factor agonist molecules” (Genentech, Inc., priority 1997, dated 2003)
Positions of bridges follow the written chain, without caps; N, C: chain ends. Residues, ends and D or L forms follow the SMILES beside them.

Experiments:
IGFBP-3 [1] = biological target: T1, IGFBP-3 (Homo sapiens, UniProt P17936); experiment: KIRA assay of IGF-I activity with IGF-I plus IGFBP-3 and peptide; format: cell-based; details: FIG. 37D
Experimental: (§1) C. In Vitro Activation (KIRA)
(§2) The ability of several synthetic peptides to block IGF-I binding to IGFBPs and release functional IGF-I was tested in a KIRA assay of IGF-I activity, as described in Example 1. Cells were treated with IGF-I alone, peptide alone, peptide plus IGF-I, IGF-I plus binding protein (IGFBP-1 or IGFBP-3), or IGF-I plus binding protein (IGFBP-1 or IGFBP-3) and peptide.
It is believed that this would drop to 30 uM with a 1:1 ratio.

IGFBP-1 [2] = biological target: T2, IGFBP-1 (Homo sapiens, UniProt P08833); experiment: Biotin-BP plate (ELISA) assay, biotinylated IGFBP-1 binding to IGF-I; details: FIG. 33
T2 construct: biotin (chemical label, EZ-LINK NHS-SS-Biotin)
T2 sequence (P08833 26-259): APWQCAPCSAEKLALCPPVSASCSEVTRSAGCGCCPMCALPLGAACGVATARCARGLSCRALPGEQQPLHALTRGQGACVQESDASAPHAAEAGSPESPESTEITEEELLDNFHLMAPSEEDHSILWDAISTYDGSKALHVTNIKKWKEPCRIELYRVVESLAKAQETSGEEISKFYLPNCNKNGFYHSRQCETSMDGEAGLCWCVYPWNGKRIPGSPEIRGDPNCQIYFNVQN
Experimental: 1. Biotin-BP Assay (for IGFBP-1 Binders)
For inhibition of IGFBP-1 binding, IGFBP-1 (as well as IGFBP-3 as a control) were biotinylated as described above. MAXISORP™plates were coated and blocked as described above, using 2 μg/mL IGF-I. In a separate plate, serial dilutions of peptide were premixed with a constant concentration (20 nM) of biotinylated IGFBP-1. After 20 min. at room temperature, the mixture was added to the IGF-I plate. The peptide/IGFBP mix was then removed and the plate was washed ten times with PBS buffer containing 0.05% TWEEN-20™ surfactant. Bound biotin-IGFBP-1 was then detected using streptavidin-conjugated horse radish peroxidase, and a chromogenic substrate.
A second series of peptides made use of non-natural amino acids to probe whether other structural features such as an added methyl group at the alpha carbon, or an isomer (D-alanine) could affect peptide binding to IGFBP-1.
Substitutions at the N-terminus or C-terminus yielded affinity improvements. […] All of these peptides had similar or improved apparent affinity for IGFBP-1 as compared with bp1-01 and bp1-02 and are thus expected to increase the availability of IGF-I in an in vitro cell culture assay.

[3] = biological target: T3, recombinant human (rh) IGFBP-1 (Homo sapiens, UniProt P08833); experiment: ^125I-IGF-I competitive binding plate assay, IGFBP-1; details: FIG. 36
T3 sequence (P08833 26-259): T2 sequence (P08833 26-259)
Experimental: (§3) The mutant (Leu^24,Ala^31)hIGF-I was also tested for its ability to displace radio-labeled rhIGF-I off the IGFBPs in a competitive binding assay. This assay involves coating recombinant human (rh) IGFBP-1 or rhIGFBP-3 (160 ng/ml) onto 96-well plates overnight, blocking the plates for one hour with 0.5% BSA, adding rhIGF-I (250-0.08 ng/ml) or (Leu^24,Ala^31)hIGF-I for 1 hour, then adding 20,000 cpm of ^125I-IGF-I and incubating for 2 hours before washing and counting.
(§4) As an additional assay of peptide activity, several peptides were tested in an assay using ^125I-labeled IGF-I to measure inhibition of IGFBP binding, as described in Example 1 (Assay 3). Serial dilutions of peptide were added to an IGFBP-1 or an IGFBP-3 plate. Thereafter, ^125I-labeled IGF-I was added and the plates were incubated for 2 hours. The plates were then washed and counted to determine the amount of bound IGF-I.

IGFBP-3 [4] = biological target: T1, IGFBP-3; experiment: BIAcore competition assay, IGFBP-3 binding to immobilized IGF-II; details: 20 nM IGFBP-3; approximately 1500 RU immobilized IGF-II; read-out: IC50, inhibition of IGFBP-3 binding to IGF-II (BIAcore)
Experimental: D. BIAcore™ Competition Assay (for IGFBP-3 Binders)
IGF-II was immobilized on a dextran chip for inhibition assays using a BIAcore™ 2000 surface-plasmon-resonance device (BIAcore, Inc., Piscataway, N.J.) to measure free binding protein. IGF-II was biotinylated as described above, and injected over a chip to which streptavidin had been coupled (BIAcore, Inc.) to give approximately 1500 RU of immobilized IGF-II. […] Serial dilutions of peptide were mixed with a constant concentration (20 nM) of IGFBP-3. After incubation for ≧1 hour at room temperature, an aliquot of 20 μl was injected at a flow rate of 20 μl/min over the IGF-II chip. Following the injection, a response reading was taken to measure the relative amount of IGFBP-3 bound to the IGF-II.

IGFBP-1 [5] = biological target: T2, IGFBP-1; experiment: KIRA assay of IGF-I activity with IGF-I plus IGFBP-1 and peptide; format: cell-based; details: FIG. 37B
Experimental: as §1, §2

IGFBP-3 [6] = biological target: T1, IGFBP-3; experiment: BIAcore competition assay, IGFBP-3 binding to immobilized IGF-I
Experimental: A. BIAcore™ Competition Assay (for IGFBP-3 Binders)
IGF-I was immobilized on a dextran chip for inhibition assays using a BIAcore™ 2000 surface-plasmon-resonance device (BIAcore, Inc., Piscataway, N.J.) to measure free binding protein. […] Serial dilutions of peptide were mixed with a constant concentration (40 nM) of IGFBP-3. After incubation for >1 hour at room temperature, an aliquot of 20 μL was injected at a flow rate of 20 μL/min over the IGF-I chip. Following the injection, a response reading was taken to measure the relative amount of IGFBP-3 bound to the IGF-I.

IGFBP-3 [7] = biological target: T1, IGFBP-3; experiment: ^125I-IGF-I competitive binding plate assay, IGFBP-3; details: FIG. 35
Experimental: as §3, §4

T1 sequence (P17936 28-291): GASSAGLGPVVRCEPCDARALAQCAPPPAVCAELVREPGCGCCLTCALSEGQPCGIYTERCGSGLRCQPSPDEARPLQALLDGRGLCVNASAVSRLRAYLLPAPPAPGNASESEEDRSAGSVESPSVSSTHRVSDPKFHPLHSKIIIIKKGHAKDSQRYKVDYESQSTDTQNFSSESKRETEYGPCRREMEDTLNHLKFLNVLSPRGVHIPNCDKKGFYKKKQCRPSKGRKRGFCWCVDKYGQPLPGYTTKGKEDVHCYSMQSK

IC50 (IGFBP-3 [6]; 40 nM IGFBP-3, 400 to 800 RU immobilized IGF-I, read-out: BIAcore Assay IC50, inhibition of IGF-I binding to IGFBP-3)	SMILES	effect on IGF-I activity in KIRA with IGF-I plus IGFBP-3 (IGFBP-3 [1])	inhibition of biotinylated IGFBP-1 binding to IGF-I plate (IGFBP-1 [2])	inhibition of ^125I-IGF-I binding to an IGFBP-1 coated plate [3]	IC50 (IGFBP-3 [4])	effect on IGF-I activity in KIRA with IGF-I plus IGFBP-1 (IGFBP-1 [5])	IGF-I Inhibition IC50 (mut)/IC50 (wt) (IGFBP-3 [6]; bp3-01-ox variants by BIAcore, wt = bp3-01-ox)	inhibition of ^125I-IGF-I binding to an IGFBP-3 plate (IGFBP-3 [7])
	CSCC[C@H](NC(=O)[C@H](CC(N)=O)NC(=O)[C@@H]1CSSC[C@H](NC(=O)[C@@H](NC(=O)[C@H](CCC(=O)O)NC(=O)[C@H](CCC(=O)O)NC(=O)[C@@H](N)CO)C(C)C)C(=O)N[C@@H](Cc2c[nH]c3ccccc23)C(=O)N2CCC[C@H]2C(=O)N[C@@H](C(C)C)C(=O)N[C@@H](C)C(=O)N[C@@H](CCC(=O)O)C(=O)N[C@@H](Cc2c[nH]c3ccccc23)C(=O)N[C@@H](Cc2ccc(O)cc2)C(=O)N[C@@H](CC(C)C)C(=O)N1)C(=O)N[C@@H](Cc1c[nH]c2ccccc12)C(=O)NCC(=O)O [BP3-01-ox] (H-SEEVCWPVAEWYLCNMWG-OH; disulfide 5-14; N-terminus and C-terminus assumed)	no significant effect	little or no inhibition	did not inhibit	0.92 µM	no significant effect	1	inhibition
12 µM	CSCC[C@@H]1NC(=O)[C@H](Cc2c[nH]c3ccccc23)NC(=O)[C@@H]2CCCN2C(=O)CNC(=O)[C@H](CC(=O)O)NC(=O)[C@H](C)NC(=O)[C@@H](NC(=O)[C@@H](NC(=O)CNC(=O)[C@H](CCSC)NC(=O)[C@@H](N)CC(=O)O)C(C)C)CSSC[C@@H](C(=O)N[C@@H](CCC(=O)O)C(=O)N[C@@H](Cc2c[nH]c3ccccc23)C(=O)N[C@H](C(=O)N[C@@H](CCC(=O)O)C(=O)O)[C@@H](C)O)NC(=O)[C@H](C(C)C)NC(=O)[C@H](Cc2ccc(O)cc2)NC1=O [BP3-02-ox] (H-DMGVCADGPWMYVCEWTE-OH; disulfide 5-14; N-terminus and C-terminus assumed)			did not inhibit				inhibition
